This is an account of results in patent US5856175A, “Device for detecting microorganisms” (priority 1996, dated 1999).

Read-outs that look alike come from different tables or passages of the source.

Format in all cases: cell-based
For assay [1], the system named is Pseudomonas aeruginosa 33584. Nature of the assay: Pattern of inhibition using silicone-emulsion CO2 sensors (Table 3). To be noted: 4 h, 37° C., 5×10^7 CFU/ml. An excerpt: (§1) Microbial identification using the described CO2 sensors can also be based on the principle of growth inhibition. This system differs from the classical biochemical identification systems, as identification is based on selective growth inhibition by inhibitory agents, such as dyes, antibiotics, and other substances. Once again, the production of CO2 is the measure of growth. The growth pattern produced in the presence of these inhibitory agents identifies the species of the test microorganism. The amount of growth is compared with a growth control well that contains no inhibitor. A profile is derived using a two-stage quadratic discriminate analysis based on the results derived from the battery of inhibitory agents.
(§2) Microtiter plates (96 flat bottom wells) containing 0.05% xylenol blue silicone-emulsion sensors were filled with 100 microliters of microbial growth medium containing no inhibitors (growth control wells) and eighteen different dyes, antibiotics, and other inhibitory substances. Final concentrations of the inhibitors were achieved after addition of 100 microliters of inoculum (final inoculum of 5×10^7 CFU/ml) of the representative microorganisms.
(§3) After inoculating the microtiter tray, it was sealed with a pressure sensitive plastic plate sealer and initial readings were taken with a reflectance reader. The plate was then placed into a 37° C. incubator. After four hours incubation, the plate was removed and final reflectance readings were taken.

For assay [2], the system named is Alcaligenes odorans 33585. Described as above. To be noted: 4 h, 37° C., 5×10^7 CFU/ml.
Description: as §1, §2, §3

In assay [3] the test system is Proteus mirabilis 33583. The assay is described as above. As to conditions: 4 h, 37° C., 5×10^7 CFU/ml.
Description: as §1, §2, §3

The test system of assay [4] is Escherichia coli 33582. Described as above. To be noted: 4 h, 37° C., 5×10^7 CFU/ml.
Description: as §1, §2, §3

Assay [5] has as its system Staphylococcus aureus 25923. The assay is described as follows: Antimicrobial susceptibility pattern using silicone-emulsion CO2 sensors (Table 4). As to conditions: read-out: Percent growth as compared to a growth control without antibiotics.
Description: (§4) Microtiter plates (96 flat bottom wells) containing 0.05% Xylenol blue silicone-emulsion sensors on the bottom were filled with 100 microliters of microbial growth medium containing no antibiotics (growth control wells) and nine different classes of antibiotics. Final concentrations of the antibiotics were achieved after addition of 100 microliters of inoculum (final inoculum of 5×10^7 CFU/ml) of the representative microorganisms. The concentrations of antibiotics used represent those used in determining if the test organism is sensitive, intermediate, or resistant to a particular antibiotic.
as §3
(§5) The results in Table 4 show a pattern of growth, no growth, or intermediate growth of the four test organisms with the nine classes of antibiotics. This is indicative of the type of susceptibility of the organisms to the antibiotics. The organisms tested vary in their susceptibility pattern because of differences in their physiological makeup.

The subject of assay [6] is Escherichia coli 29194. The assay is described as above. To be noted: read-out: Percent growth as compared to a growth control without antibiotics.
Description: as §4, §3, §5

Assay [7] concerns Streptococcus faecalis 29212. Described as above. To be noted: read-out: Percent growth as compared to a growth control without antibiotics.
Description: as §4, §3, §5

The subject of assay [8] is Pseudomonas aeruginosa 27853. Described as above. As to conditions: read-out: Percent growth as compared to a growth control without antibiotics.
Description: as §4, §3, §5

For the molecule Acriflavine, the “Percent growth as compared to a growth control without antibiotics” value was found to be 84% in assay [1] (30 mcg), 55% in assay [2] (30 mcg), 68% in assay [3] (30 mcg) and 5% in assay [4] (30 mcg).
As to `O=C1CN(/N=C/c2ccc([N+](=O)[O-])o2)C(=O)N1` [Nitrofurantoin], the activity at 15 µg/mL in assay [5] (Staphylococcus aureus, 25923, 15 mcg (per milliliter), 4 h, 37° C., 5×10^7 CFU/ml) is 33%; in assay [6] (Escherichia coli, 29194, 15 mcg (per milliliter), 4 h, 37° C., 5×10^7 CFU/ml), 14%; in assay [7] (Enterococcus faecalis, 29212, 15 mcg (per milliliter), 4 h, 37° C., 5×10^7 CFU/ml) it was 110%; in assay [8] (Pseudomonas aeruginosa, 27853, 15 mcg (per milliliter), 4 h, 37° C., 5×10^7 CFU/ml), 112%.
Regarding `CC(=O)[O-].[Tl+]` [Thallous acetate], the “Percent growth as compared to a growth control without antibiotics” value in assay [1] (150 mcg) came out at 34%; in assay [2] (150 mcg), 47%; in assay [3] (150 mcg) it was 68%; in assay [4] (150 mcg) it was 40%.
For `CCCCCCCCCCCCN` [Dodecylamine], the “Percent growth as compared to a growth control without antibiotics” value in assay [1] (18.75 mcg) worked out at 118%; in assay [2] (18.75 mcg), 106%; in assay [3] (18.75 mcg), 108%; in assay [4] (18.75 mcg), 99%.
As for `[Cl][Co][Cl]` [Cobalt chloride], the “Percent growth as compared to a growth control without antibiotics” value in assay [1] (205 mcg) is 52%; in assay [2] (205 mcg), 35%; in assay [3] (205 mcg), 17%; in assay [4] (205 mcg), 27%.
With Brilliant green, the “Percent growth as compared to a growth control without antibiotics” value in assay [1] (3 mcg) stood at 101%; in assay [2] (3 mcg), 37%; in assay [3] (3 mcg) it was 84%; in assay [4] (3 mcg), 104%.
`CO[C@@H]1[C@@H](OC(N)=O)[C@@H](O)[C@H](Oc2ccc3c(O)c(NC(=O)c4ccc(O)c(CC=C(C)C)c4)c(=O)oc3c2C)OC1(C)C` [Novobiocin]: the “Percent growth as compared to a growth control without antibiotics” value in assay [1] (48 mcg) came out at 85%; in assay [2] (48 mcg), 16%; in assay [3] (48 mcg) it was 48%; in assay [4] (48 mcg) it was 9%.
On to `[N-]=[N+]=[N-]` [Sodium azide], for which the “Percent growth as compared to a growth control without antibiotics” value in assay [1] (75 mcg) is recorded as 47%; in assay [2] (75 mcg) it was 47%; in assay [3] (75 mcg), 35%; in assay [4] (75 mcg) it was 6%.
In the case of `CCn1cc(C(=O)O)c(=O)c2ccc(C)nc21` [Nalidixic acid], the activity at 15 µg/mL in assay [5] (Staphylococcus aureus, 25923, 4 h) was 80%; in assay [6] (Escherichia coli, 29194, 4 h), 18%; in assay [7] (Enterococcus faecalis, 29212, 4 h) it was 116%; in assay [8] (Pseudomonas aeruginosa, 27853, 4 h), 109%.
In the case of `[O-][n+]1ccccc1SSc1cccc[n+]1[O-]` [Omadine disulfide], the “Percent growth as compared to a growth control without antibiotics” value in assay [1] (5.5 mcg) is listed as 94%; in assay [2] (5.5 mcg), 36%; in assay [3] (5.5 mcg), 71%; in assay [4] (5.5 mcg), 10%.
For `COc1cccc(OC)c1C(=O)N[C@@H]1C(=O)N2[C@@H]1SC(C)(C)[C@@H]2C(=O)O` [Methicillin], the activity at 5 µg/mL in assay [5] (Staphylococcus aureus, 25923, 5 mcg (per milliliter), 4 h, 37° C., 5×10^7 CFU/ml) worked out at 16%; in assay [6] (Escherichia coli, 29194, 5 mcg (per milliliter), 4 h, 37° C., 5×10^7 CFU/ml), 111%; in assay [7] (Enterococcus faecalis, 29212, 5 mcg (per milliliter), 4 h, 37° C., 5×10^7 CFU/ml) it was 116%; in assay [8] (Pseudomonas aeruginosa, 27853, 5 mcg (per milliliter), 4 h, 37° C., 5×10^7 CFU/ml), 146%.
In the case of `O=c1[nH]c(=O)n([C@H]2C[C@H](O)[C@@H](CO)O2)cc1F` [Floxuridine], the “Percent growth as compared to a growth control without antibiotics” value in assay [1] (36 mcg) is given as 79%; in assay [2] (36 mcg), 75%; in assay [3] (36 mcg) it was 35%; in assay [4] (36 mcg), 55%.
Consider `O=C(O)c1cc(Br)cc(Br)c1O` [Dibromosalicyclic acid], for which the “Percent growth as compared to a growth control without antibiotics” value in assay [1] (750 mcg) is given as 88%; in assay [2] (750 mcg) it was 25%; in assay [3] (750 mcg), 38%; in assay [4] (750 mcg) it was 83%.
`N[C@@H]1CON=C1O` [Cycloserine]: the “Percent growth as compared to a growth control without antibiotics” value is on record as 56% in assay [1] (78 mcg); 66% in assay [1] (240 mcg); 116% in assay [2] (78 mcg); 27% in assay [2] (240 mcg); 107% in assay [3] (78 mcg); 26% in assay [3] (240 mcg). For the same molecule, the “Percent growth as compared to a growth control without antibiotics” value amounted to 13% in assay [4] (78 mcg) and 8% in assay [4] (240 mcg).
`CN(C)c1ccc2nc3ccc(=[N+](C)C)cc-3sc2c1` [Methylene blue]: the “Percent growth as compared to a growth control without antibiotics” value in assay [1] (255 mcg) is 90%; in assay [2] (255 mcg), 56%; in assay [3] (255 mcg) it was 80%; in assay [4] (255 mcg), 20%.
Consider `CN(C)c1ccc(C(=C2C=CC(=[N+](C)C)C=C2)c2ccccc2)cc1` [Malachite green], for which the “Percent growth as compared to a growth control without antibiotics” value is listed as 87% in assay [1] (3 mcg), 66% in assay [2] (3 mcg), 107% in assay [3] (3 mcg) and 40% in assay [4] (3 mcg).
Consider Colistin, for which the “Percent growth as compared to a growth control without antibiotics” value in assay [1] (13 mcg) is 34%; in assay [2] (13 mcg) it was -44%; in assay [3] (13 mcg) it was 114%; in assay [4] (13 mcg), 3%.
`CC1(C)S[C@@H]2[C@H](NC(=O)C(C(=O)O)c3ccccc3)C(=O)N2[C@H]1C(=O)O` (some centres unmarked) [Carbenicillin]: the “Percent growth as compared to a growth control without antibiotics” value is on record as 89% in assay [1] (40 mcg), 77% in assay [2] (40 mcg), 69% in assay [3] (40 mcg) and 54% in assay [4] (40 mcg).
For `CC(=O)OCC1=C(C(=O)O)N2C(=O)[C@@H](NC(=O)Cc3cccs3)[C@H]2SC1` [Cephalothin], the “Percent growth as compared to a growth control without antibiotics” value is on record as 108% in assay [1] (13.5 mcg), 66% in assay [2] (13.5 mcg), 26% in assay [3] (13.5 mcg) and 53% in assay [4] (13.5 mcg).
